According to US9636343B2, “Composition for preventing and treating acetaminophen inducing hepatotoxicity containing TNP(N2-(m-Trifluorobenzyl), N6-(p-nitrobenzyl)purine) as an effective ingredient” (Korea Advanced Institute of Science and Technology, priority 2015, dated 2017):

Assays:
[1] = system: human embryonic stem cell-derived liver cells; assay: Acetaminophen caused apoptosis (cell survival rate, trypan blue) in human embryonic stem cell-derived liver cells; format: cell-based; conditions: hESC-derived liver cells; acetaminophen 25 mM together with TNP 100 μM, 18 hours; FIG. 2
Procedure: Particularly, CHA-hESC cell line was cultured in the conditioned medium with feeder-free system for 3 days to be confluent. Upon completion of the culture, the hESC cells were cultured in RPMI-1640 (Hyclone, USA) supplemented with 50 ng/ml of Activin A (Peprotech, USA) for 5 days to induce the differentiation. The differentiated cells were cultured in the hepatocyte culture medium (HCM; Lonza, USA) supplemented with 30 ng/ml of fibroblast growth factor 4 (Peprotech) and 20 ng/ml of bone morphogenetic protein 2 (BMP2; Peprotech) for 5 days. Then, the cells were further cultured in the hepatocyte culture medium supplemented with 20 ng/ml of hepatocyte growth factor (HGF; Peprotech) for another 5 days to induce the differentiation of hESC into hepatocytes. The differentiated hepatocytes were cultured in the hepatocyte culture medium supplemented with 10 ng/ml of oncostatin M (R&D Systems, USA) and 0.1 μM of dexamethasone (Sigma) for 5 days to induce maturation of the hepatocytes. At last, the mature hepatocytes were obtained. […]
Particularly, the liver cells on the 19th day from the differentiation from human stem cells were distributed in a 6 well plate at the concentration of 90% each well. […] This experiment was performed in triplicate and the cell survival rate was analyzed based on the results. […] The maximum limits of significance were determined as p<0.05.

male C57BL/6J mouse [2] = assay: Individual survival rate in acetaminophen treated mouse model; format: in vivo; conditions: acetaminophen 500 mg/kg orally, then TNP 10 mg/kg intraperitoneal, FIG. 9
Procedure: The inventors investigated whether or not TNP had the activity of protecting liver cells from the toxicity caused by acetaminophen in an animal model.
Particularly, the male C57BL/6J mouse at 8˜10 weeks was orally administered with 500 mg/kg of acetaminophen (Sigma) dissolved in water. Then, the mouse was administered with 10 mg/kg of TNP (Calbiocham) dissolved in olive oil (Sigma) via intraperitoneal injection, followed by investigation of individual survival rate. Statistical analysis was performed by Kaplan-Meier survival analysis, and the maximum limit of the significance was determined as p<0.05.

phosphorylated JNK [3] = assay: Stress signaling activity (JNK phosphorylation) in liver tissue of acetaminophen treated mouse model; format: in vivo; conditions: acetaminophen 500 mg/kg orally, TNP 10 mg/kg intraperitoneal, 6 hours later, FIG. 12
Procedure: (§1) To investigate the preventing effect of TNP on the acetaminophen caused liver toxicity in the animal model of Example 7, tissues, blood, and JNK phosphorylation were analyzed.
(§2) Particularly, acetaminophen and TNP were injected to the male mouse by the same manner as described in Example 7. 6 hours later, the liver was extracted from the mouse, followed by histopathological analysis, blood analysis (AST and ALT), and stress signaling activity (JNK) analysis. For the blood analysis, a blood sample was obtained from orbit of the mouse. The blood sample was centrifuged at 13,000 rpm for 10 minutes to obtain serum. AST and ALT analysis was performed (Idexx VetTest 8008 chemistry analyzer) with 100 μl of the serum obtained above. To investigate the stress signaling activity, the liver tissues extracted from the liver taken out above were loaded in RIPA medium (1 M tris-Cl (PH7.4), 1 M NaCl, 0.5 M EDTA, NP-40, 10% sodium deoxycholate, 10% SDS), followed by lysis with a homogenizer. After the centrifugation, the supernatant was collected, followed by SDS-PAGE and Western blotting. The phosphorylated JNK and the total JNK were quantified by Western blotting by the same manner as described in Example 5.

phosphorylated JNK [4] = assay: JNK phosphorylation (Western blotting) in mouse derived liver cells; format: cell-based; conditions: acetaminophen together with TNP, FIG. 7
Procedure: (§3) The regulation of response against stress caused by acetaminophen in liver cells according to the treatment of TNP was investigated.
Particularly, the mouse derived liver cells treated with acetaminophen and TNP by the same manner as described in Experimental Example 2 were obtained. Cell extract was prepared for protein assay. Then, SDS-PAGE and Western blotting were performed. The cells were lysed in 10 ml of SDS buffer (50 mM Tris-HCl, 1% IGEPAL CA-630, 0.25% deoxycholic acid, 150 mM NaCl, 1 mM ethylene-diamine tetra acetic acid, 1 mM NaF, and 0.1% sodium dodecyl sulfate, pH 7.4) containing protease inhibitor cocktail (Complete Mini, Roche, Germany). The cell lysate was placed in ice for 20 minutes, followed by centrifugation at 4° C., at 13000 rpm, for 10 minutes. Upon completion of the centrifugation, the protein in the supernatant was quantified (Bio-Rad Laboratories, USA). 50 μg of the protein was loaded for SDS-PAGE (SDS-polyacrylamide gel electrophoresis). The electrophoresed protein was transferred onto Immobilon-P transfer membrane (Millipore Corporate, USA) by using electroblotting. The membrane was then loaded in TBS (Tris-buffered saline) containing 0.1% Tween 20 and 10% milk powder, followed by blocking for 1 hour. […] The activity was analyzed by using Image J software (version 1.37, NIH, USA).

[5] = system: mouse derived liver cells; assay: Acetaminophen caused apoptosis (cell survival rate) in mouse derived liver cells; format: cell-based; conditions: acetaminophen 25 mM together with TNP 100 μM, 18 hours, FIG. 3
Source text: Particularly, the male C57BL/6J mouse at 10˜12 weeks was anesthetized by administrating Avertin via intraperitoneal injection, and the abdomen was opened. 24 gauge catheter was inserted in the portal vein to perfuse with a perfusion solution (1.42 M Nacl, 0.067 M Kcl, 0.1 M HEPES PH 7.4, 0.05 M EGTA). Then, a digestion solution comprising collagenase (Worthington, USA) was circulated. After the liver cells were digested, the mesenteric membrane was peeled off to separate liver cells, followed by filtering with nylon mesh. The filtrate was centrifuged at 100×g for 3 minutes. The supernatant was discarded and the precipitated liver cells were suspended in HBSS buffer (Hanks' Balanced salt solution, WelGene), followed by centrifugation. The precipitated liver cells were centrifuged at 2400 rpm for 10 minutes in Percol solution (autoclaved percoll (Sigma), 10×PBS, 1 M HEPES pH 7.4). The supernatant was discarded and the precipitated liver cells were suspended in HBSS buffer (Hanks' Balanced salt solution, WelGene), followed by centrifugation again at 100×g. […]
Particularly, the mouse derived liver cells were distributed in a 6 well plate at the concentration of 100% each well. The cell survival rate was calculated by the same manner as described in Experimental Example 1. […] The maximum limits of significance were determined as p<0.05.

phosphorylated JNK [6] = assay: JNK phosphorylation (Western blotting) in human hepatoma cell line HepG2; format: cell-based; conditions: acetaminophen together with TNP, FIG. 8
Procedure: as §3
Particularly, the human hepatoma cell line HepG2 treated with acetaminophen and TNP by the same manner as described in Experimental Example 3 was obtained. Cell extract was prepared for protein assay. Then, SDS-PAGE and Western blotting were performed by the same manner as described in Experimental Example 5.

[7] = system: reduced glutathione (GSH) in mouse derived liver cells; assay: Intracellular reduced glutathione (GSH) level, GSH-Glo Glutathione Assay, in mouse derived liver cells; format: cell-based; conditions: FIG. 6
Procedure: The metabolizing activity of liver cells on acetaminophen according to the treatment of TNP was investigated.
Particularly, the level of the reduced glutathione (GSH) in the mouse derived liver cells treated with acetaminophen and TNP by the same manner as described in Experimental Example 2 was measured. The measurement of the reduced glutathione was performed by using GSH-Glo Glutathione Assay kit (Promega) with Tristar2 LB 942 plate reader.

male C57BL/6J mouse [8] = assay: Liver toxicity in acetaminophen treated mouse model: histopathological analysis and blood analysis (AST and ALT); format: in vivo; conditions: acetaminophen 500 mg/kg orally, TNP 10 mg/kg intraperitoneal, 6 hours later
Procedure: as §1, §2

[9] = system: human hepatoma cell line HepG2; assay: Acetaminophen caused apoptosis (cell survival rate) in human hepatoma cell line HepG2; format: cell-based; conditions: acetaminophen 25 mM together with TNP 100 μM, 18 hours, FIGS. 4 and 5
Procedure: The human hepatoma cell line HepG2 was distributed in a 6 well plate precoated with gelatin at the density of 1×10^6 cells/ml, followed by culture for 24 hours for cell adhesion. The culture medium herein was DMEM (Biowest) supplemented with 10% FBS, 10 nM dexamethasone, 10 nM insulin, and penicillin/streptomycin (100 μg/ml). The cells were cultured in a 37° C. incubator under the control of temperature and humidity with supplying a mixed gas containing CO2 by 5%.
The changes in acetaminophen caused apoptosis according to the treatment of TNP were investigated in the human hepatoma cell line HepG2 cultured by the same manner as described in Example 3.
Particularly, the human hepatoma cell line HepG2 was distributed in a 6 well plate at the concentration of 90% each well. The cell survival rate was calculated by the same manner as described in Experimental Example 1. All the statistic treatments in this invention were presented as mean±SD and the statistic analysis was performed by using Student's t-test. The maximum limits of significance were determined as p<0.05.

O=[N+]([O-])c1ccc(CNc2nc(NCc3cccc(C(F)(F)F)c3)nc3[nH]cnc23)cc1 [TNP, N2-(m-Trifluorobenzyl), N6-(p-nitrobenzyl)purine]
apoptosis of liver cells caused by acetaminophen [1]: significantly suppressed | individual survival rate (male C57BL/6J mouse [2]): effect of protecting a mouse from the acetaminophen caused liver toxicity | increase of phosphorylated JNK signal in liver tissue (phosphorylated JNK [3]): significantly suppressed | phosphorylated JNK signal increased by the acetaminophen caused stress response (phosphorylated JNK [4]): significantly suppressed | apoptosis of liver cells caused by acetaminophen [5]: significantly suppressed | phosphorylated JNK signal increased by the acetaminophen caused stress response (phosphorylated JNK [6]): significantly suppressed | decrease of the reduced glutathione caused by acetaminophen ([7]; acetaminophen together with TNP): back to increase | reduced glutathione concentration in the liver cells ([7]; treatment of TNP alone): increased | level of ALT (liver toxicity serum index) (male C57BL/6J mouse [8]; mouse serum, FIG. 11): significantly decreased | level of AST (liver toxicity serum index) (male C57BL/6J mouse [8]; mouse serum, FIG. 11): significantly decreased | necrosis in liver tissue (histopathological analysis) (male C57BL/6J mouse [8]; mouse, FIG. 10): only minor necrosis | apoptosis of liver cells caused by acetaminophen [9]: significantly suppressed
